This passage reports IC50 and EC50 results from US20250353820A1, “ANTIVIRAL PYRAZOLOPYRIDINONE COMPOUNDS” (Novartis AG, priority 2019, published 2025).

Like-named read-outs stand apart in the source and are kept apart here.

In assay [1] the target is human CMV DNA polymerase UL54 (Human cytomegalovirus (strain AD169) (HHV-5) (Human herpesvirus 5), UniProt P08546). The experiment in a line: biochemical.
Assay [2] has as its target human HSV DNA polymerase UL30 (Human herpesvirus 1 (strain 17) (HHV-1) (Human herpes simplex virus 1), UniProt P04293). The assay is described as follows: biochemical. The following applies: 20 minutes at room temperature.
Assay [3] deals with Luciferase-encoding HCMV (AD169 strain). The experiment in a line: microbe, parasite or virus in culture. It counts as cell-based.
Where [4] appears, read: HSV-polymerase Biochemical IC50, 625 pM HSV polymerase.
The mark [5] stands for this setting: 625 pM HSV polymerase, read-out: HSV-polymerase Biochemical IC50.
Where [6] appears, read: read-out: CMV-Luc Cellular EC50, NN-NHDF cells, MOI of 1, 72 hrs.
The mark [7] stands for this setting: 100 pM CMV polymerase, 60 minutes at room temperature, read-out: CMV-polymerase Biochemical IC50.

`CC(N)COCC(C)(C)S(=O)(=O)C1(CN2CCc3c(C(=O)NCc4ccc(Cl)cc4)nn(C)c3C2=O)CC1` (single isomer, unassigned) [Example 97]: the IC50 in assay [1] stood at 1 nM; in assay [2] (setting [4]), 23 nM.
With `CC(N)COCC(C)(C)S(=O)(=O)C1(CN2CCc3c(C(=O)NCc4ccc(Cl)cc4)nn(C)c3C2=O)CC1` (single isomer, unassigned) [Example 98], the IC50 in assay [1] (read-out: CMV-polymerase Biochemical IC50, 100 pM CMV polymerase, 60 minutes at room temperature) was determined as 1 nM; in assay [2] (setting [4]) it was 26 nM.
Turning to `CC(N)COCC(C)(C)S(=O)(=O)C1(CN2CCc3c(C(=O)NCc4ccc(C#N)cc4)nn(C)c3C2=O)CC1` (single isomer, unassigned) [Example 99], the results for the IC50 in assay [1] and in assay [2] (setting [4]) were 4 nM and 63 nM, respectively.
Take `Cn1nc(C(=O)NCc2ccc(C#N)cc2)c2c1C(=O)N(CC1(S(=O)(=O)N3CCC(C)(O)C3)CC1)CC2` (single isomer, unassigned) [Example 131, (R)- or (S)-N-(4-Cyanobenzyl)-6-((1-((3-hydroxy-3-methylpyrrolidin-1-yl)sulfonyl)cyclopropyl)methyl)-1-methyl-7-oxo-4,5,6,7-tetrahydro-1H-pyrazolo[3,4-c]pyridine-3-carboxamide]: the IC50 in assay [2] (setting [5]) was 162 nM. Also, the EC50 in assay [3] (setting [6]) stood at 223 nM.
For the compound `Cn1nc(C(=O)NCc2ccc(C#N)cc2)c2c1C(=O)N(CC1(S(=O)(=O)C3CCOC3)CC1)CC2` (single isomer, unassigned) [Example 170], the IC50 was determined as 4 nM in assay [1] (setting [7]) and 122 nM in assay [2] (setting [5]).
For the compound `Cn1nc(C(=O)NCc2ccc(C#N)cc2)c2c1C(=O)N(CC1(S(=O)(=O)C(C)(CN)CO)CC1)CC2` (single isomer, unassigned) [Example 184], the IC50 worked out at 4 nM in assay [1] (setting [7]) and 52 nM in assay [2] (setting [5]).
Turning to `Cn1nc(C(=O)NCc2ccc(Cl)cc2)c2c1C(=O)N(CC1(S(=O)(=O)C(C)(CN)CO)CC1)CC2` (single isomer, unassigned) [Example 187], the IC50 in assay [2] (setting [5]) is 86 nM. The EC50 in assay [3] (setting [6]) is 71 nM.
For `Cn1nc(C(=O)NCc2ccc(Cl)cc2)c2c1C(=O)N(CC1(S(=O)(=O)C(C)(CN)CO)CC1)CC2` (single isomer, unassigned) [Example 188] the same measures were 108 nM and 160 nM.
In the case of `Cn1nc(C(=O)NCc2ccc(Cl)cc2)c2c1C(=O)N(CC1(S(=O)(=O)C(C)(C)C(O)CN)CC1)CC2` (single isomer, unassigned) [Example 200], the results for the IC50 in assay [1] (setting [7]) and in assay [2] (setting [5]) were 1 nM and 14 nM, respectively.
The corresponding values for `CNCC(O)C(C)(C)S(=O)(=O)C1(CN2CCc3c(C(=O)NCc4ccc(C#N)cc4)nn(C)c3C2=O)CC1` (single isomer, unassigned) [Example 202] are 2 nM and 30 nM.
The corresponding values for `CNCC(O)C(C)(C)S(=O)(=O)C1(CN2CCc3c(C(=O)NCc4ccc(Cl)cc4)nn(C)c3C2=O)CC1` (single isomer, unassigned) [Example 204] are 3 nM and 37 nM.
For `CN(C)CC(O)C(C)(C)S(=O)(=O)C1(CN2CCc3c(C(=O)NCc4ccc(Cl)cc4)nn(C)c3C2=O)CC1` (single isomer, unassigned) [Example 206] the same measures were 21 nM and 74 nM.
With `Cn1nc(C(=O)NCc2ccc(Cl)cc2)c2c1C(=O)N(CC1(S(=O)(=O)C(C)(CN)CO)CC1)CC2` (stereo not shown) [Example 186], the IC50 in assay [2] (setting [5]) was 37 nM. In assay [3] (NN-NHDF cells, MOI of 1, 72 hrs, read-out: CMV-Luc Cellular EC50), the EC50 was 90 nM.
As to `Cn1nc(C(=O)NCc2ccc(C#N)cc2)c2c1C(=O)N(CC1(S(=O)(=O)C(C)(C)[C@H](O)CO)CC1)CC2` [Example 193, (R)—N-(4-cyanobenzyl)-6-((1-((3,4-dihydroxy-2-methylbutan-2-yl)sulfonyl)cyclopropyl)methyl)-1-methyl-7-oxo-4,5,6,7-tetrahydro-1H-pyrazolo[3,4-c]pyridine-3-carboxamide], the IC50 in assay [2] (setting [5]) worked out at 11 nM. For the same compound, the EC50 in assay [3] (Human betaherpesvirus 5, AD169, 72 h, read-out: CMV-Luc Cellular EC50, NN-NHDF cells, MOI of 1, 72 hrs) was 22 nM.

By IC50 is commonly meant the concentration needed to halve the response being measured. Usually EC50 stands for the midpoint of the concentration-response curve.
